Consider six compounds from patent US12187662B2, “FOXM1 inhibitor compositions and methods of using the same” (The Board of Trustees of the University of Illinois, priority 2018, dated 2025).

A short description of data set [1]: Pharmacokinetic studies in mice after single s.c. or oral dose. Conditions: for half-life / AUC(0-t): female, CD-1, mouse, plasma; for Blood levels after oral administration / Blood levels after s.c. injection: doses of FIGS. 6A-6B.
Data set [2] has as its target T1, FOXM1 protein (Homo sapiens, UniProt Q08050).
T1 construct: a terbium donor was attached to purified full length FOXM1 through a streptavidin-biotin linker
T1 sequence (Q08050 1-763): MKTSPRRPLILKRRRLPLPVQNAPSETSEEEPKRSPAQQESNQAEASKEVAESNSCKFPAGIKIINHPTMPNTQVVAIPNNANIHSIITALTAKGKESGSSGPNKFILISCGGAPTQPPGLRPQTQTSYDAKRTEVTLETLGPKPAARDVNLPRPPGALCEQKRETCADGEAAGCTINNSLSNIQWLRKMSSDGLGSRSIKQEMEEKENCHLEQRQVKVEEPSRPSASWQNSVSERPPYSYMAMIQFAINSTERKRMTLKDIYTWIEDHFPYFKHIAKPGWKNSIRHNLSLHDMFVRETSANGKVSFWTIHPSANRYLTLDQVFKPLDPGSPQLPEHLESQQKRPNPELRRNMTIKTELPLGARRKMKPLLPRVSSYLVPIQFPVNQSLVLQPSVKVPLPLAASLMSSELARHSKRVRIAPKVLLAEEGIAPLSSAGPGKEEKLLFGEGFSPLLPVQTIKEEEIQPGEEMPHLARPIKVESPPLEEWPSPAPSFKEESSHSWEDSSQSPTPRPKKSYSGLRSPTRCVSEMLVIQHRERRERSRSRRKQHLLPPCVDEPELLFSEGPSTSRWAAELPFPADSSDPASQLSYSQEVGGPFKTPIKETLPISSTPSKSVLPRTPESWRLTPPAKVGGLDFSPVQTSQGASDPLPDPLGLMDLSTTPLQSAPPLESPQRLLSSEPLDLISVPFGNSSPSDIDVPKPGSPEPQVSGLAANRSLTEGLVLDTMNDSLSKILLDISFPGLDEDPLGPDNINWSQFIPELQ
In words: Competitive binding of inhibitors to FOXM1 by tr-FRET (Fl-NB-72 probe). Conditions: tr-FRET competition with Fl-NB-72; Ki calculated from IC50 (Cheng-Prusoff). As to the method: Competitive binding assays of FOXM1 inhibitor binding to FOXM1 by tr-FRET were conducted. All tr-FRET experiments used FRET buffer (20 mM Tris, pH 7.5, 50 mM NaCl, 0.01% NP-40 detergent, 10% glycerol) with 0.3 mg/ml ovalbumin and 0.1 mM butylated hydroxy-anisole added fresh daily. Solutions of the protein, fluorescent probe and inhibitor dilutions were prepared at 3× the final concentrations, the final dilution taking place as they were mixed together on the microtiter plate.
Final concentrations were 10^-5M to 10^-9M, with the last point being buffer only, no inhibitor. Fluorescein-NB-72 (Fl-NB-72) was prepared at 1 mM in DMF and stored at −20° C. It was diluted into plain FRET buffer to give 100 nM in the assay.
Incubations were done in duplicate on black Molecular Devices 96-well microtiter plates. […] To this were added 5 μL of the inhibitor dilutions, mixed and incubated, in the dark, at room temperature, for 1 h. […] Diffusion-enhanced FRET was determined by a parallel incubation without biotin-FOXM1 and subtracted as a background signal. Graphs were prepared using Graph Pad/Prism 4.

In data set [3] the test system is DT22 cells. Description: Cell proliferation assay (WST-1), DT22. The data set is classed as cell-based, human. Conditions: Homo sapiens, DT-22, inhibition of cell proliferation. The protocol:
(§1) All cells were tested for mycoplasma using Real-Time PCR Mycoplasma Detection Kit (Akron Biotech, Boca Raton, FL).
(§2) All assays were performed in triplicate.
Background: Tetrazolium assays rely on reduction of a dye to a coloured formazan, in cell work by metabolically active cells.

Data set [4] has as its system MCF7 cells. In words: Cell proliferation assay (WST-1), MCF7. Type of data set: cell-based, human. The following applies: for pIC50: Homo sapiens. The protocol: as §1, §2
In data set [5] the test system is DT22 triple negative human breast tumor xenografts. Description: DT22 triple negative breast tumor xenografts in NSG mice. The data set is classed as in vivo, mouse. Conditions: for Tumor growth in vivo, low doses: 5 or 10 mg/kg s.c. every second or third day; for Growth of DT22-Luc xenograft tumors, low doses: NB-115 s.c. daily 2 or 6 mg/kg, NB-63 s.c. daily 20 mg/kg until day 20, then 10 mg/kg every other day; for Animal body weight: same low-dose regimens as tumor study (FIG. 14B). As to the method:
In vivo breast cancer xenograft studies For examination of the growth of triple-negative DT22 breast tumors, intact female NOD/SCID-gamma (NSG) mice were used. DT-22 cells (1×10^6 cells/mouse) were injected s.c. into the right axial mammary gland. Mice received s.c. injection or oral gavage daily or every second or third day, as indicated, with vehicle or FOXM1 inhibitor compound, and tumor growth was monitored over time.

The subject of data set [6] is breast cancer cell lines. Description: Proliferation of breast cancer cell lines (panel, line not specified). The data set is classed as cell-based, human. Conditions: cell line not specified or several lines. The protocol: as §1, §2
Data set [7] concerns MDA-MB-231 cells. Description: Cell proliferation assay (WST-1), MDA-MB-231. The following applies: Homo sapiens, MDA-MB-231; inhibition of cell proliferation; read-out: IC50 MDA-MB-231. The data set is classed as cell-based, human. The protocol:
as §1, §2

Data set [8] relates to FOXM1 target genes in DT22 cells. Description: FOXM1 target gene expression by qRT-PCR, DT22. The data set is classed as cell-based, human. Conditions: DT22, 24 h, at IC50 concentration. An excerpt: RNA was extracted from cells and expression of different genes was monitored by qRT-PCR. Assays were run in triplicate. Values are mean±SEM. *, p<0.05; **, p<0.01; ***, p<0.001. RNA isolation and real-time PCR Total RNA was isolated using TRIzol (Invitrogen) and reverse transcribed using […] reverse transcriptase (New England BioLabs). […] Relative mRNA levels of genes were normalized to the housekeeping gene 36B4, and fold change calculated relative to the vehicle treated samples. Results are the average±SD from at least two independent experiments carried out in triplicate. Primer sequences for the genes studied were obtained from the Harvard Primer Bank. Sequences are available on their website.
(In general: Real-time PCR tracks product formation cycle by cycle.)

Data set [9] has as its system FOXM1 target genes in MCF7 cells. Description: FOXM1 target gene expression by qRT-PCR, MCF7. Type of data set: cell-based, human. The following applies: MCF7, 24 h, at IC50 concentration. As to the method: RNA was extracted from cells and expression of different genes was monitored by qRT-PCR. Assays were run in triplicate. Values are mean±SEM. *, p<0.05; **, p<0.01; ***, p<0.001. RNA isolation and real-time PCR Total RNA was isolated using TRIzol (Invitrogen) and reverse transcribed using […] reverse transcriptase (New England BioLabs). Real-time PCR was performed using SYBRgreen PCR Master Mix (Roche) as described (Bergamaschi et al., Breast Cancer Res., 2014, 16:436). Relative mRNA levels of genes were normalized to the housekeeping gene 36B4, and fold change calculated relative to the vehicle treated samples. Results are the average±SD from at least two independent experiments carried out in triplicate. Primer sequences for the genes studied were obtained from the Harvard Primer Bank. Sequences are available on their website.

The subject of data set [10] is tamoxifen-resistant MCF7 breast cancer cells. Description: Proliferation of tamoxifen-resistant MCF7 cells. The following applies: 6 days. The data set is classed as cell-based, human. The protocol:
Values are mean±SD of three separate assays. Cell proliferation assay WST-1 assay (Roche, Basel, Switzerland) was used to quantify cell viability as described (Gong et al., Mol. Cell Endocrinol., 2016, 437:190-200). Absorbance was measured at 450 nm using a VICTOR X5 PerkinElmer 2030 Multilabel Plate Reader. All assays were performed in triplicate.

Setting [11] is: MCF7, inhibition of cell proliferation, read-out: IC50 MCF7.
[12] abbreviates: sc, 40 mg/kg, PK s.c. AUC0-48, mice, 40 mg/kg s.c.

pIC50, pKi: −log10 of the molar value. Entries after “also recorded” stand apart in the source; their conditions may differ. Read-outs that look alike come from different tables or passages of the source.

Turning to `CCN(CC)CCCCCCOc1ccc(C(c2ccc(OCCCCCCN(CC)CC)cc2)=C2[C@H]3C[C@@H]4C[C@@H](C[C@H]2C4)C3)cc1` [NB-51, 6,6′-(((((5r,7r)-adamantan-2-ylidene)methylene)bis(4,1-phenylene))bis(oxy))bis(N,N-diethylhexan-1-amine)], the half-life in data set [1] (po, 20 mg/kg) is 20.1 h. Besides, the AUC(0-t) in data set [1] (po, 20 mg/kg, PK p.o. AUC0-48, mice, 20 mg/kg p.o. (footnote *)) stood at 1.8 µM·h; in data set [1] (sc, 20 mg/kg, PK s.c. AUC0-48, mice, 20 mg/kg s.c. (footnote *)) it was 4.7 µM·h. In data set [2], the negative logarithm of the Ki (pKi) is 6.89. In addition, the pIC50 is 5.82 in [3] and 6.15 in data set [4] (setting [11]). In addition, the “Improvement in anti-proliferative activity versus monoamine NB-54” value in data set [4] (MCF-7 cells) was about 5 fold.

In the case of `C[N+]1(CCCCCCOc2ccc(C(c3ccc(Cl)cc3)=C3C4C[C@H]5C[C@@H](C4)C[C@H]3C5)cc2)CCCC1` [NB-63], the half-life in data set [1] (sc) was in the range of 25 to 40 h. In addition, the AUC(0-t) in [1] (setting [12]) is 160 µM·h. In addition, the “PK p.o. AUC0-48” value in data set [1] (mice, 40 mg/kg p.o.) was “too low to measure”. Further, the “Blood levels after oral administration” value in data set [1] (mice) was “very low levels”. Further, in data set [1] (mice, s.c.), the “AUC after s.c. administration relative to NB-55” value is given as “approximately 3 fold” and the “Blood levels after s.c. injection” value was “very high blood levels”. In addition, the negative logarithm of the Ki (pKi) in data set [2] is 7.12. The same compound showed a negative logarithm of the IC50 (pIC50) in data set [3] of 5.22. Further, the pIC50 in [4] (setting [11]) is 5.26. For the same compound, in data set [5], the “Tumor growth in vivo, low doses” value is reported as “greatly suppress tumor growth”; the “Growth of DT22-Luc xenograft tumors, low doses” value was “suppress the growth; also recorded: effective in suppressing the growth”; the Animal body weight result is recorded as “do not affect; also recorded: little impact”.

Turning to `c1cc(C(=C2C3CC4CC(C3)CC2C4)c2ccc(OCCCCCCN3CCCC3)cc2)ccc1OCCCCCCN1CCCC1` [NB-65, 1,1′-((((((5r,7r)-adamantan-2-ylidene)methylene)bis(4,1-phenylene))bis(oxy))bis(hexane-6,1-diyl))dipyrrolidine], the “IC50 for inhibition of proliferation of breast cancer cell lines” value in data set [6] is “submicromolar”. In data set [2], the negative logarithm of the Ki (pKi) is 6.72. The pIC50 is 6.00 in data set [3] and 6.10 in data set [4] (setting [11]).

As to `C[N+]1(CCCCCCOc2ccc(C(=C3C4CC5CC(C4)CC3C5)c3ccc(OCCCCCC[N+]4(C)CCCC4)cc3)cc2)CCCC1` [NB-68, 1,1′-((((((5r,7r)-adamantan-2-ylidene)methylene)bis(4,1-phenylene))bis(oxy))bis(hexane-6,1-diyl))bis(1-methylpyrrolidin-1-ium) diiodide], the half-life in data set [1] (po, 60 mg/kg) was 18.5 h; in data set [1] (sc), 25 to 40 h; in [1] (sc, 60 mg/kg), 109 h. Further, the AUC(0-t) came out at 0.18 µM·h in data set [1] (po, 60 mg/kg, PK p.o. AUC0-48, mice, 60 mg/kg p.o.) and 289 µM·h in data set [1] (sc, 60 mg/kg, PK s.c. AUC0-48, mice, 60 mg/kg s.c.). In data set [1] (mice), the “Blood levels after oral administration” value is “very low levels”. In addition, the “Blood levels after s.c. injection” value in [1] (mice, s.c.) is on record as “very high blood levels”. Besides, the negative-log Ki (pKi) in data set [2] is 7.29. For the same compound, the pIC50 in data set [3] was 6.15; in [7], 5.77; in [4] (setting [11]), 6.10. The “Tumor growth in vivo, low doses” value in data set [5] was “greatly suppress tumor growth”. In addition, the “Growth of DT22 tumor xenografts” value in data set [5] (s.c., 20 mg/kg every other day for first 10 days then 10 mg/kg every other day) is reported as “greatly suppress tumor growth”.

Take `CC[N+](C)(CC)CCCCCCOc1ccc(C(c2ccc(OCCCCCC[N+](C)(CC)CC)cc2)=C2C3C[C@H]4C[C@@H](C3)C[C@H]2C4)cc1` [NB-115, 6-(4-(((5r,7r)-adamantan-2-ylidene)(4-((6-(diethyl(methyl)-λ^4-azaneyl)hexyl)oxy)phenyl)methyl)phenoxy)-N,N-diethyl-N-methylhexan-1-aminium diiodide]: in [8], the “Expression of ATF3 (gene suppressed by FOXM1)” value is on record as “increased” and the “Expression of FOXM1 stimulated target genes (FOXM1C, AURKB, CCNB1, PLK1)” value is recorded as “significantly reduced”. Moreover, in data set [1] (sc), the half-life fell in the range of 25 to 40 h. Further, the AUC(0-t) in data set [1] (setting [12]) worked out at 746 µM·h. For the same compound, in data set [4] (MCF7, read-out: IC50 MCF7), the pIC50 was 5.96. Also, in [5], the “Tumor growth in vivo, low doses” value is “greatly suppress tumor growth”; the “Growth of DT22-Luc xenograft tumors, low doses” value is listed as “suppress the growth; also recorded: effective in suppressing the growth”; the Animal body weight result is reported as “do not affect; also recorded: little impact”. In data set [9], the “Expression of ATF3 (gene suppressed by FOXM1)” value is “increased” and the “Expression of FOXM1 stimulated target genes (FOXM1C, AURKB, CCNB1, PLK1)” value is on record as “significantly reduced”.

Take `CC/C(=C(\c1ccc(O)cc1)c1ccc(OCCN(C)C)cc1)c1ccccc1` [trans-hydroxytamoxifen, reference compound]: the “Effect on proliferation of tamoxifen-resistant MCF7 cells” value in data set [10] is recorded as “weakly stimulated”.

For orientation: half-life means how long it takes for the measured level to halve. One may read the AUC(0-t) as exposure summed from dosing to a finite time, without extrapolation to infinity. The pKi is −log10 of the Ki, conventionally taken in molar units. A word on the pIC50: it is the negative decadic logarithm of the IC50, by convention in mol/L.
